Assay results: patent US20040116420A1 (priority 2001, published 2004)

Key:
HSV-1 protease = molecular target: T1, HSV-1 protease (Human herpesvirus 1, UniProt P10210); assay: Enzymatic assay for HSV-1 protease (assembly) inhibitor, fluorescence polarization; format: biochemical; details: read-out: HSV-1 Enzyme inhibition IC50
T1 construct: 6xHis (N); made in house; host or cells: baculovirus expression system
How it was run: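 His6-tagged HSV-1 UL26 protease, baculovirus-expressed, preincubated 30 min at RT with compound in 1 M citrate/phosphate buffer pH 7.4 with 20% glycerol and 2 mM TCEP. A biotin-HTYLQA*SERFRIK-DTAF substrate was then cleaved for 60 min at RT, stopped with avidin, and read by fluorescence polarization versus no-inhibitor control.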

HSV-1 = assay: Antiviral activity, HSV-1 in Vero cells, plaque method; format: cell-based; details: Human alphaherpesvirus 1, 20 hours, 90% inhibition of plaque formation
How it was run: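 HSV-1 (50,000 pfu in 2% FBS-DMEM) was added to Vero cells and removed, then the compound was applied in 2% FBS-DMEM for 20 h at 37° C, 5% CO2. After a freeze-thaw, virus yield in the medium was titred by plaque assay. EC90 is the concentration giving 90% plaque reduction versus the compound-free control.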

Vero cells = assay: Cytotoxicity, Vero cells, Alamar Blue; format: cell-based; details: 25 μM, 20 hours
How it was run: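 Overnight-seeded Vero cells were exposed to 25 μM compound in 2% FBS-DMEM for 20 h at 37 °C, 5% CO2. Alamar Blue was then added for about 6 h. The absorbance ratio relative to compound-free control gave the living-cell ratio.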

T1 sequence (P10210 1-247): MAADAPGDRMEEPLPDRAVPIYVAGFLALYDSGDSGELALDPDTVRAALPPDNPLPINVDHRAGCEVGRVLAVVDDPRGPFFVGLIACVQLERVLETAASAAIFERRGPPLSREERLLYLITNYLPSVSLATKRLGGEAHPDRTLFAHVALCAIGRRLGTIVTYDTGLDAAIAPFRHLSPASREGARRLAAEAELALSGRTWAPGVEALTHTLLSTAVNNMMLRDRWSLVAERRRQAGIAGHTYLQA

Structure (SMILES) | IC50 (HSV-1 protease) [µM] | EC90 (HSV-1) [µM] | Cell viability (% of control) (Vero cells) [%]
Cc1c(NC(=O)OC(C)(C)C)ccc2nc(N[C@@H](Cc3ccccc3)C(=O)NCc3ccncc3)oc(=O)c12 [Compound No.31, (5-Methyl-4-oxo-2-{2-phenyl-1S-[(pyridin-4-ylmethyl)-carbamoyl]-ethylamino}-4H-benzo[d][1,3]oxazin-6-yl)-carbamic acid tert-butyl ester] | > 20 | > 25 | 108.0
Cc1c(NC(=O)OC(C)(C)C)ccc2nc(N[C@H](C(=O)NCc3ccncc3)C(C)C)oc(=O)c12 [Compound No.25, (5-Methyl-2-{2-methyl-1S-[(pyridin-4-ylmethyl)-carbamoyl]-propylamino}-4-oxo-4H-benzo[d][1,3]oxazin-6-yl)-carbamic acid tert-butyl ester] | > 20 | > 25 | 100.0
CCc1ccc(C(=O)Nc2ccc3nc(NC(C)(C)C(=O)N(C)CCc4ccccn4)oc(=O)c3c2C)cc1 [Compound No.187, 4-Ethyl-N-(5-methyl-2-{1-methyl-1-[methyl-(2-pyridin-2-yl-ethyl)-carbamoyl]-ethylamino}-4-oxo-4H-benzo[d][1,3]oxazin-6-yl)-benzamide] | 1.1 | 4.5 | 65.8
Cc1c(NC(=O)OC(C)(C)C)ccc2nc(N[C@@H](CC3CCCCC3)C(=O)N(C)CCc3cccnc3)oc(=O)c12 [Compound No.69, (2-{2-Cyclohexyl-1S-[methyl-(2-pyridin-3-yl-ethyl)-carbamoyl]-ethylamino}-5-methyl-4-oxo-4H-benzo[d][1,3]oxazin-6-yl)-carbamic acid tert-butyl ester] | 3.6 | < 3.2 | 49.5
Cc1c(NC(=O)OC(C)(C)C)ccc2nc(N[C@H](C(=O)N(C)CCc3cccnc3)C(C)C)oc(=O)c12 [Compound No.67, (5-Methyl-2-{2-methyl-1S-[methyl-(2-pyridin-3-yl-ethyl)-carbamoyl]-propylamino}-4-oxo-4H-benzo[d][1,3]oxazin-6-yl)-carbamic acid tert-butyl ester] | 1.5 | 5.3 | 96.5
Cc1c(NC(=O)OC(C)(C)C)ccc2nc(N[C@@H](CC3CCCCC3)C(=O)NCCc3ccccn3)oc(=O)c12 [Compound No.29, {2-[2-Cyclohexyl-1S-(2-pyridin-2-ylethylcarbamoyl)-ethylamino]-5-methyl-4-oxo-4H-benzo[d][1,3]oxazin-6-yl}-carbamic acid tert-butyl ester] | 19.5 | 24.3 | 110.0
CCCCCCCC(=O)Nc1ccc2nc(NC(C)(C)C(=O)N(C)CCc3ccccn3)oc(=O)c2c1C [Compound No.196, Octanoic acid (5-methyl-2-{1-methyl-1-[methyl-(2-pyridin-2-yl-ethyl)-carbamoyl]-ethylamino}-4-oxo-4H-benzo[d][1,3]oxazin-6-yl)-amide] | 0.8 | 11.5 | 86.5
COc1ccc(C(=O)Nc2ccc3nc(NC(C)(C)C(=O)N(C)CCc4ccccn4)oc(=O)c3c2C)cc1 [Compound No.163, 4-Methoxy-N-(5-methyl-2-{1-methyl-1-[methyl-(2-pyridin-2-yl-ethyl)-carbamoyl]-ethylamino}-4-oxo-4H-benzo[d][1,3]oxazin-6-yl)-benzamide] | 1.3 | 10.7 | 66.0
Cc1c(NC(=O)c2ccc(OC(F)(F)F)cc2)ccc2nc(NC(C)(C)C(=O)N(C)CCc3ccccn3)oc(=O)c12 [Compound No.173, N-(5-Methyl-2-{1-methyl-1-[methyl-(2-pyridin-2-yl-ethyl)-carbamoyl]-ethylamino}-4-oxo-4H-benzo[d][1,3]oxazin-6-yl)-4-trifluoromethoxy-benzamide] | 1.4 | 7.1 | 26.1
Cc1c(NC(=O)c2cccc(OC(F)(F)F)c2)ccc2nc(NC(C)(C)C(=O)N(C)CCc3ccccn3)oc(=O)c12 [Compound No.172, N-(5-Methyl-2-{1-methyl-1-[methyl-(2-pyridin-2-yl-ethyl)-carbamoyl]-ethylamino}-4-oxo-4H-benzo[d][1,3]oxazin-6-yl)-3-trifluoromethoxy-benzamide] | 1.2 | 9 | 17.4

Second part, led by results:

IC50 (HSV-1 protease) [µM] | EC90 (HSV-1) [µM] | Structure (SMILES) | Cell viability (% of control) (Vero cells) [%]
2.8 | > 12.5 | Cc1c(NC(=O)c2ccccc2)ccc2nc(NC(C)(C)C(=O)N(C)CCc3ccccn3)oc(=O)c12 [Compound No.138, N-(5-Methyl-2-{1-methyl-1-[methyl-(2-pyridin-2-yl-ethyl)-carbamoyl]-ethylamino}-4-oxo-4H-benzo[d][1,3]oxazin-6-yl)-benzamide] | 84.4
1.4 | 7.6 | Cc1c(NC(=O)c2ccccc2Cl)ccc2nc(NC(C)(C)C(=O)N(C)CCc3ccccn3)oc(=O)c12 [compound 151, 2-Chloro-N-(5-methyl-2-{1-methyl-1-[methyl-(2-pyridin-2-yl-ethyl)-carbamoyl]-ethylamino}-4-oxo-4H-benzo[d][1,3]oxazin-6-yl)-benzamide] | 74.2
0.8 | 5.1 | Cc1c(NC(=O)OC(C)(C)C)ccc2nc(N[C@@H](Cc3ccccc3)C(=O)N(C)CCc3cccnc3)oc(=O)c12 [Compound No.64, (5-Methyl-2-{1S-[methyl-(2-pyridin-3-yl-ethyl)-carbamoyl]-2-phenyl-ethylamino}-4-oxo-4H-benzo[d][1,3]oxazin-6-yl)-carbamic acid tert-butyl ester] | 70.1
5.2 | 10.1 | Cc1c(NC(=O)OC(C)(C)C)ccc2nc(N3Cc4ccccc4C[C@H]3C(=O)N(C)CCc3ccccn3)oc(=O)c12 [Compound No.99, (5-Methyl-2-{3S-[methyl-(2-pyridin-2-yl-ethyl)-carbamoyl]-3,4-dihydro-1H-isoquinolin-2-yl}-4-oxo-4H-benzo[d][1,3]oxazin-6-yl)-carbamic acid tert-butyl ester] | 53.2
6.3 | 7.4 | Cc1c(NC(=O)OC(C)(C)C)ccc2nc(N3C[C@H](OCc4ccccc4)C[C@H]3C(=O)NCc3cccnc3)oc(=O)c12 [Compound No.110, (2-{4R-Benzyloxy-2S-[(pyridin-3-ylmethyl)-carbamoyl]-pyrrolidin-1-yl}-5-methyl-4-oxo-4H-benzo[d][1,3]oxazin-6-yl)-carbamic acid tert-butyl ester] | 71.9
6.1 | 5.8 | Cc1c(NC(=O)OC(C)(C)C)ccc2nc(N3Cc4ccccc4C[C@H]3C(=O)N(C)Cc3ccccn3)oc(=O)c12 [Compound No.98, {5-Methyl-2-[3S-(methyl-pyridin-2-yl-methylcarbamoyl)-3,4-dihydro-1H-isoquinolin-2-yl]-4-oxo-4H-benzo[d][1,3]oxazin-6-yl}-carbamic acid tert-butyl ester] | 46.2
1.4 | 8.8 | Cc1c(NC(=O)OC(C)(C)C)ccc2nc(N3C[C@H](OCc4ccccc4)C[C@H]3C(=O)NCc3ccccn3)oc(=O)c12 [Compound No.109, (2-{4R-Benzyloxy-2S-[(pyridin-2-ylmethyl)-carbamoyl]-pyrrolidin-1-yl}-5-methyl-4-oxo-4H-benzo[d][1,3]oxazin-6-yl)-carbamic acid tert-butyl ester] | 58.5
4.9 | > 12.5 | Cc1c(NC(=O)c2ccccc2OC(F)(F)F)ccc2nc(NC(C)(C)C(=O)N(C)CCc3ccccn3)oc(=O)c12 [Compound No.182, N-(5-Methyl-2-{1-methyl-1-[methyl-(2-pyridin-2-yl-ethyl)-carbamoyl]-ethylamino}-4-oxo-4H-benzo[d][1,3]oxazin-6-yl)-2-trifluoromethoxy-benzamide] | 95.2
1.5 | > 12.5 | Cc1c(NC(=O)OC(C)(C)C)ccc2nc(N(C)[C@@H](C)C(=O)NCCc3ccccn3)oc(=O)c12 [Compound No.74, (5-Methyl-2-{methyl-[1S-(2-pyridin-2-ylethylcarbamoyl)-ethyl]-amino}-4-oxo-4H-benzo[d][1,3]oxazin-6-yl)-carbamic acid tert-butyl ester] | 95.3
3.3 | 8.3 | Cc1ccc(C(=O)Nc2ccc3nc(NC(C)(C)C(=O)N(C)CCc4ccccn4)oc(=O)c3c2C)cc1 [Compound No.158, 4-Methyl-N-(5-methyl-2-{1-methyl-1-[methyl-(2-pyridin-2-yl-ethyl)-carbamoyl]-ethylamino}-4-oxo-4H-benzo[d][1,3]oxazin-6-yl)-benzamide] | 63.6
2.3 | 11.7 | Cc1c(NC(=O)OC(C)(C)C)ccc2nc(N(C)[C@@H](Cc3ccccc3)C(=O)N(C)CCc3ccncc3)oc(=O)c12 [Compound No.85, [5-Methyl-2-(methyl-{1S-[methyl-(2-pyridin-4-yl-ethyl)-carbamoyl]-2-phenyl-ethyl}-amino)-4-oxo-4H-benzo[d][1,3]oxazin-6-yl]-carbamic acid tert-butyl ester] | 60.7
